The values that follow come from ChEMBL document CHEMBL4477222, “Discovery of Novel Thiophene-Based, Thumb Pocket 2 Allosteric Inhibitors of the Hepatitis C NS5B Polymerase with Improved Potency and Physicochemical Profiles” (J Med Chem, 2016).

Structures are written as SMILES. pEC50: −log10 of the molar value.

Data set [1] is described as follows: Cytotoxicity against human Huh7ET cells assessed as reduction in cell viability after 4 days. Format: cell-based.
Data set [2] in a line: Cytotoxicity against human W11.8 cells assessed as reduction in cell viability after 4 days. Format: cell-based.
Data set [3] has as its target RNA-directed RNA polymerase (Hepacivirus hominis, UniProt O39930, L419M). The experiment in a line: Inhibition of HCV genotype 1a NS5B L419M mutant. Details: species or system Hepatitis C virus subtype 1a.
The next data set relates to Hepatitis C virus. In words: Antiviral activity against HCV genotype 1 infected in human assessed as log10 reduction in viral load at 500 mg[…] bid for 3 days measured on day 4 post treatment. The data set is classed as functional, Hepacivirus hominis.
The target of data set [4] is RNA-directed RNA polymerase (Hepacivirus hominis, UniProt O39930, M423T). The experiment in a line: Inhibition of HCV genotype 1a NS5B M423T mutant. Details: species or system Hepatitis C virus subtype 1a.
In data set [5] the target is Nonstructural protein 5A (Hepatitis C virus) (UniProt Q5L478). The experiment in a line: Ratio of EC50 for HCV genotype 1b NS5A infected in human l389lucubi- neo/NS3-375.1-containing Huh7ET cells in presence of 40% human serum to EC50 for HCV genotype 1b NS5A infected in human l389lucubi- neo/NS3-375.1-containing Huh7ET cells. To be noted: Hepatitis C virus subtype 1b.

A further data set deals with Nonstructural protein 5A (Hepatitis C virus, UniProt Q5L478). In words: Inhibition of HCV genotype 2a NS5A. Details: species or system Hepatitis C virus subtype 2a.
The target of data set [6] is RNA-directed RNA polymerase (Hepacivirus hominis, UniProt O39930, M423V). In words: Inhibition of HCV genotype 1a NS5B M423V mutant. Details: species or system Hepatitis C virus subtype 1a.
Data set [7] deals with RNA-directed RNA polymerase (Hepacivirus hominis, UniProt O39930, M423I). In words: Inhibition of HCV genotype 1a NS5B M423I mutant. Details: species or system Hepatitis C virus subtype 1a.
For data set [8], the target named is RNA-directed RNA polymerase (Hepacivirus hominis, UniProt O39930, L419I). In words: Inhibition of HCV genotype 1a NS5B L419I mutant. Details: species or system Hepatitis C virus subtype 1a.

Broadly, the CC50 is the concentration that lowers cell viability or growth by half. For orientation: pEC50 means −log10 of the EC50, conventionally taken in molar units. A higher pEC50 goes with a small EC50.

Regarding `CC(C)(C)C#Cc1cc(N(CC(=O)N2CCCCC2)C(=O)[C@H]2CC[C@H](C)CC2)c(C(=O)O)s1`, the CC50 at 96 h in data set [1] and in [2] was above 20 µM throughout.
Take `C[C@H](C(=O)N(C)C)N(c1cc(C#CC(C)(C)C)sc1C(=O)O)C(=O)[C@H]1CC[C@H](C)CC1`: the CC50 at 96 h in [1] and in data set [2] was above 20 µM in each case.
Consider `CN(C)C(=O)CN(c1cc(C#CC(C)(C)C)sc1C(=O)O)C(=O)[C@H]1CC[C@H](C)CC1`, for which the CC50 at 96 h in data set [1] and in data set [2] was above 20 µM throughout.
`CN(C)CCN(C)C(=O)CN(c1cc(C#CC(C)(C)C)sc1C(=O)O)C(=O)[C@H]1CC[C@H](C)CC1`: the CC50 at 96 h in [1] and in data set [2] was above 20 µM each time.
Regarding `CC(C)(C)C#Cc1cc(N(CC(=O)N2CC(O)C2)C(=O)[C@H]2CC[C@H](C)CC2)c(C(=O)O)s1`, the CC50 at 96 h in data set [1] and in data set [2] was above 20 µM throughout.
For the compound `CC(C)(C)C#Cc1cc(N(C(=O)[C@H]2CC[C@H](C)CC2)[C@H]2CC[C@H](O)CC2)c(C(=O)O)s1` [LOMIBUVIR], the pEC50 was 6.49 in data set [3]; 6.51 in [4]; 5.09 at Nonstructural protein 5A; 7.19 in [6]; 7.52 in [7]; 6.49 in data set [8]. The FC in the data set with Hepatitis C virus was 3.4. The Ratio EC50 in [5] lay in the range of 10 to 20. The cytotoxic concentration (CC50) at 96 h in data set [1] and in data set [2] was above 20 µM each time.
Consider `C[C@@H](C(=O)N(C)C)N(c1cc(C#CC(C)(C)C)sc1C(=O)O)C(=O)[C@H]1CC[C@H](C)CC1`, for which the CC50 at 96 h in data set [1] and in data set [2] was above 20 µM each time.
For `CC(C)[C@@H](C(=O)N(C)C)N(c1cc(C#CC(C)(C)C)sc1C(=O)O)C(=O)[C@H]1CC[C@H](C)CC1`, the 50% cytotoxic concentration (CC50) at 96 h in data set [1] and in data set [2] was above 20 µM throughout.
For `CNC(=O)CN(c1cc(C#CC(C)(C)C)sc1C(=O)O)C(=O)[C@H]1CC[C@H](C)CC1`, the CC50 at 96 h in data set [1] and in data set [2] was above 20 µM throughout.
For `CC(C)NC(=O)CN(c1cc(C#CC(C)(C)C)sc1C(=O)O)C(=O)[C@H]1CC[C@H](C)CC1`, the CC50 at 96 h in data set [1] and in data set [2] was above 20 µM throughout.
Consider `CCC[C@@H](C(=O)N(C)C)N(c1cc(C#CC(C)(C)C)sc1C(=O)O)C(=O)[C@H]1CC[C@H](C)CC1`, for which the CC50 at 96 h in [1] and in data set [2] was above 20 µM in each case.
Turning to `CC(C)(C)C#Cc1cc(N(CC(=O)N2CCC(O)CC2)C(=O)[C@H]2CC[C@H](C)CC2)c(C(=O)O)s1`, the CC50 at 96 h in data set [1] and in [2] was above 20 µM throughout.
Consider `CCN(CC)C(=O)CN(c1cc(C#CC(C)(C)C)sc1C(=O)O)C(=O)[C@H]1CC[C@H](C)CC1`, for which the cytotoxic concentration (CC50) at 96 h in [1] and in data set [2] was above 20 µM throughout.
As to `CC(C)(C)C#Cc1cc(N(CC(=O)N2CCCC2)C(=O)[C@H]2CC[C@H](C)CC2)c(C(=O)O)s1`, the CC50 at 96 h in [1] and in data set [2] was above 20 µM throughout.
`CN1CCN(C(=O)CN(c2cc(C#CC(C)(C)C)sc2C(=O)O)C(=O)[C@H]2CC[C@H](C)CC2)CC1`: the CC50 at 96 h in data set [1] and in data set [2] was above 20 µM throughout.
Take `COC[C@@H](C(=O)N(C)C)N(c1cc(C#CC(C)(C)C)sc1C(=O)O)C(=O)[C@H]1CC[C@H](C)CC1`: the CC50 at 96 h in data set [1] and in [2] was above 20 µM in each case.
For `CC[C@@H](C(=O)N(C)C)N(c1cc(C#CC(C)(C)C)sc1C(=O)O)C(=O)[C@H]1CC[C@H](C)CC1`, the CC50 at 96 h in data set [1] and in data set [2] was above 20 µM throughout.
Regarding `COC1CCN(C(=O)CN(c2cc(C#CC(C)(C)C)sc2C(=O)O)C(=O)[C@H]2CC[C@H](C)CC2)CC1`, the CC50 at 96 h in [1] and in [2] was above 20 µM in each case.
On to `CN(C)C(=O)[C@H](CO)N(c1cc(C#CC(C)(C)C)sc1C(=O)O)C(=O)[C@H]1CC[C@H](C)CC1`, for which the CC50 at 96 h in data set [1] and in data set [2] was above 20 µM throughout.
